Values quoted from earlier work as cited in US20210024636A1, “COMPOSITIONS AND METHODS FOR TREATING SEXUAL DYSFUNCTION” (ChemistryRX, priority 2019, published 2021).

Tests used:
[1] = test system: T-cell adhesion to ICAM-1; details: human T-cell line, in vitro
[2] = test system: human peripheral blood mononuclear cells; details: in vitro

What does the source list for `CS(=O)(=O)c1cccc(C[C@H](NC(=O)c2c(Cl)cc3c(c2Cl)CCN(C(=O)c2ccc4ccoc4c2)C3)C(=O)O)c1` [lifitegrast]?
inhibition of T-cell adhesion to ICAM-1 [1]: may inhibit T-cell adhesion to ICAM-1; inhibition of secretion of inflammatory cytokines [2]: may inhibit secretion of inflammatory cytokines
